Where two headings read alike, the source gives them in different places. Residues, ends and D or L forms follow the SMILES beside them.
Legend:
MDA-MB-231 cells = experiment: Cytotoxicity of MTX-bound peptide, WST-1 assay; format: cell-based
Procedure: (§1) Specifically, HeLa cells were cultured in DMEM at a condition of 37° C. with 5% CO2. The cells were respectively cultured in a cell culture plate, and then removed with trypsin. The cells were seeded at 1×10^4 cells per well in a 96-well plate. After 24 hours, the peptide was added to the media, and culture was performed again at a condition of 37° C. with 5% CO2 for 24 hours. 10 uL of WST-1 reagent was added per well, and reaction was allowed to proceed for 30 minutes at a condition of 37° C. with 5% CO2. Then, UV absorbance was measured at 450/700 nm with a 96-well plate reader.
In order to identify a drug delivery effect of a peptide, a peptide in which methotrexate (MTX) is bound to the N-terminus of one monomer of a dimer was synthesized according to a known method (Kim et al. Biomacromolecules 2016).
MDA-MB-231 cells were seeded in a 96-well plate at a density of 2.5×10^3 cells/well, and treated with the MTX-bound peptide for 48 hours starting from the next day.

NIH-3T3 = experiment: IC50 of MTX in cell line NIH-3T3; format: cell-based; details: Mus musculus, NIH3T3
MDA-MB-231 = experiment: IC50 of MTX in cell line MDA-MB-231; format: cell-based; details: Homo sapiens
HeLa = experiment: IC50 of MTX in cell line HeLa; format: cell-based; details: Homo sapiens
HeLa cells [1] = experiment: Cell-penetrating ability of fluorescently labeled dimeric peptides, flow cytometry; format: cell-based, human; details: at 62.5 nM, FIG. 6A
Procedure: During preparation of CPPs in dimeric form shown in Tables 1 to 3, one monomer thereof was prepared in a form where 5-TAMRA fluorescence was attached to the N-terminus, instead of acetyl. A monomer with acetyl and a monomer with 5-TAMRA fluorescence were mixed in a molar ratio of 1:1, and subjected to an oxidation condition in air to produce a dimeric form in which only one fluorescence was labeled per dimer molecule. Then, cell-penetrating ability of each dimer was identified. Each fluorescently labeled peptide was used to treat HeLa cells (5×10^4 cells/well), which are human-derived cells, and a ratio of the number of cells with fluorescence to the total number of cells was obtained through flow cytometry.
FIGS. 4B to 4D illustrate results obtained by treating cells with respective dimers at the same concentration (62.5 nM), measuring fluorescence intensity of the cells by flow cytometry, and relatively comparing the fluorescence intensity.
Based on cell-penetrating ability and cytotoxicity of the dimeric peptides of the present disclosure, correlation therebetween was identified. Cytotoxicity (IC50^−1) and cell-penetrating ability of the respective peptides were identified at 62.5 nM according to the methods described in Examples 5 and 6, and then graphically represented.

HeLa cells [2] = experiment: Cytotoxicity of dimeric peptides, WST-1 assay; format: cell-based, human; details: for ratio: IC50 relative to LK-3, HeLa cells
Procedure: Cytotoxicity was identified using WST-1 assay by treating HeLa cells with peptides in a 96-well plate (1×10^4 cells/well) for 24 hours.
as §1

IL-2 = experiment: Decrease of extracellularly secreted IL-2 in Jurkat cells, ELISA; format: cell-based; details: CsA complex with diLR10 versus CsA only
Procedure: The hydrophobic drug cyclosporine (CsA) was mixed with a peptide and incubated at room temperature for 20 minutes to create a complex with the hydrophobic drug. Then, Jurkat cells (1.0×10^4 cells/well) were treated with the complex for 4.5 hours. An amount of extracellularly secreted IL-2 was measured by an ELISA method to identify, through IC50 values, whether an anti-inflammatory effect caused by CsA, which corresponded to a relative decrease in IL-2, was enhanced by the cell-penetrating peptide diLR10.

[3] = Intracellular delivery of CsA with fluorescence by non-covalent bonding with peptide; format: cell-based; details: FIG. 8
Text: For the peptides with various compositions of lysine and arginine, their intracellular delivery by non-covalent bonding with CsA was identified using CsA with fluorescence.

Question: Which results are given for `CN(Cc1cnc2nc(N)nc(N)c2n1)c1ccc(C(=O)N[C@@H](CCC(=O)O)C(=O)O)cc1` [MTX, methotrexate]?
Answer: IC50 (MDA-MB-231 cells; Homo sapiens, 48 hours, MTX bound to N-terminus of one monomer of the dimer, MTX column = MTX alone, read-out: IC50 of MTX-bound peptide): 972 nM; IC50 (NIH-3T3): 37 nM; IC50 (MDA-MB-231): 970 nM; IC50 (HeLa): ~31 nM

Question: Which results are given for `CC(=O)N[C@@H](Cc1ccccc1)C(=O)N[C@H]1CSSC[C@@H](C(=O)N[C@@H](CCCNC(=N)N)C(N)=O)NC(=O)[C@H](Cc2ccccc2)NC(=O)[C@H](CCCNC(=N)N)NC(=O)[C@H](CCCNC(=N)N)NC(=O)[C@H](Cc2ccccc2)NC(=O)[C@H](Cc2ccccc2)NC(=O)[C@H](CCCNC(=N)N)NC(=O)[C@@H](NC(=O)[C@H](Cc2ccccc2)NC(C)=O)CSSC[C@@H](C(=O)N[C@@H](CCCNC(=N)N)C(N)=O)NC(=O)[C@H](Cc2ccccc2)NC(=O)[C@H](CCCNC(=N)N)NC(=O)[C@H](CCCNC(=N)N)NC(=O)[C@H](Cc2ccccc2)NC(=O)[C@H](Cc2ccccc2)NC(=O)[C@H](CCCNC(=N)N)NC1=O` [diFR10] (HELM PEPTIDE1{[ac].F.C.R.F.F.R.R.F.C.R.[am]}|PEPTIDE2{[ac].F.C.R.F.F.R.R.F.C.R.[am]}$PEPTIDE1,PEPTIDE2,3:R3-10:R3|PEPTIDE1,PEPTIDE2,10:R3-3:R3$$$V2.0; bridges inferred)?
Answer: ratio of cell-penetrating ability to cytotoxicity (IC50^−1) (HeLa cells [1]): low toxicity as compared with cell-penetrating ability; ratio (HeLa cells [2]): 4.10

Question: What does the source list for `CC[C@H](C)[C@H](NC(C)=O)C(=O)N[C@H]1CSSC[C@@H](C(=O)N[C@@H](CCCNC(=N)N)C(N)=O)NC(=O)[C@H]([C@@H](C)CC)NC(=O)[C@H](CCCNC(=N)N)NC(=O)[C@H](CCCNC(=N)N)NC(=O)[C@H]([C@@H](C)CC)NC(=O)[C@H]([C@@H](C)CC)NC(=O)[C@H](CCCNC(=N)N)NC(=O)[C@@H](NC(=O)[C@@H](NC(C)=O)[C@@H](C)CC)CSSC[C@@H](C(=O)N[C@@H](CCCNC(=N)N)C(N)=O)NC(=O)[C@H]([C@@H](C)CC)NC(=O)[C@H](CCCNC(=N)N)NC(=O)[C@H](CCCNC(=N)N)NC(=O)[C@H]([C@@H](C)CC)NC(=O)[C@H]([C@@H](C)CC)NC(=O)[C@H](CCCNC(=N)N)NC1=O` [diIR10] (HELM PEPTIDE1{[ac].I.C.R.I.I.R.R.I.C.R.[am]}|PEPTIDE2{[ac].I.C.R.I.I.R.R.I.C.R.[am]}$PEPTIDE1,PEPTIDE2,3:R3-10:R3|PEPTIDE1,PEPTIDE2,10:R3-3:R3$$$V2.0; bridges inferred)?
Answer: ratio of cell-penetrating ability to cytotoxicity (IC50^−1) (HeLa cells [1]): low toxicity as compared with cell-penetrating ability; ratio (HeLa cells [2]): 3.24

Question: With `CC(=O)N[C@@H](CC(C)C)C(=O)N[C@H]1CSSC[C@@H](C(=O)N[C@@H](CCCCN)C(N)=O)NC(=O)[C@H](CC(C)C)NC(=O)[C@H](CCCCN)NC(=O)[C@H](CCCCN)NC(=O)[C@H](CC(C)C)NC(=O)[C@H](CC(C)C)NC(=O)[C@H](CCCCN)NC(=O)[C@@H](NC(=O)[C@H](CC(C)C)NC(C)=O)CSSC[C@@H](C(=O)N[C@@H](CCCCN)C(N)=O)NC(=O)[C@H](CC(C)C)NC(=O)[C@H](CCCCN)NC(=O)[C@H](CCCCN)NC(=O)[C@H](CC(C)C)NC(=O)[C@H](CC(C)C)NC(=O)[C@H](CCCCN)NC1=O` [diLK10] (HELM PEPTIDE1{[ac].L.C.K.L.L.K.K.L.C.K.[am]}|PEPTIDE2{[ac].L.C.K.L.L.K.K.L.C.K.[am]}$PEPTIDE1,PEPTIDE2,3:R3-10:R3|PEPTIDE1,PEPTIDE2,10:R3-3:R3$$$V2.0) as the compound, how does the IC50 (MDA-MB-231 cells; 48 hours, MTX bound to N-terminus of one monomer of the dimer, MTX column = MTX alone, read-out: IC50 of MTX-bound peptide) read?
Answer: The IC50 was 45.9 nM.

Question: What about the IC50 (MDA-MB-231 cells; peptide itself, without MTX, read-out: IC50) of the same compound?
Answer: Its IC50 is ~13700 nM.

Question: And the IC50 (HeLa cells [2]; HeLa cells, WST-1, peptide treatment 24 hours)?
Answer: Its IC50 is 12400 nM.

Question: And the ratio (HeLa cells [2])?
Answer: Its ratio is 2.79.

Question: With `CC(=O)N[C@@H](CC(C)C)C(=O)N[C@H]1CSSC[C@@H](C(=O)N[C@@H](CCCNC(=N)N)C(N)=O)NC(=O)[C@H](CC(C)C)NC(=O)[C@H](CCCNC(=N)N)NC(=O)[C@H](CCCNC(=N)N)NC(=O)[C@H](CC(C)C)NC(=O)[C@H](CC(C)C)NC(=O)[C@H](CCCNC(=N)N)NC(=O)[C@@H](NC(=O)[C@H](CC(C)C)NC(C)=O)CSSC[C@@H](C(=O)N[C@@H](CCCNC(=N)N)C(N)=O)NC(=O)[C@H](CC(C)C)NC(=O)[C@H](CCCNC(=N)N)NC(=O)[C@H](CCCNC(=N)N)NC(=O)[C@H](CC(C)C)NC(=O)[C@H](CC(C)C)NC(=O)[C@H](CCCNC(=N)N)NC1=O` [diLR10] (HELM PEPTIDE1{[ac].L.C.R.L.L.R.R.L.C.R.[am]}|PEPTIDE2{[ac].L.C.R.L.L.R.R.L.C.R.[am]}$PEPTIDE1,PEPTIDE2,3:R3-10:R3|PEPTIDE1,PEPTIDE2,10:R3-3:R3$$$V2.0; bridges inferred) as the compound, how does the “decrease of IC50 value” (IL-2) read?
Answer: Its value is 21%.

Question: And the “ratio of cell-penetrating ability to cytotoxicity (IC50^−1)” value (HeLa cells [1])?
Answer: Its value is “low toxicity as compared with cell-penetrating ability”.

Question: And the “increase in IC50 value as compared with LK-3” value (HeLa cells [2]; HeLa cells)?
Answer: The value was “about 5 fold”.

Question: And the ratio (HeLa cells [2])?
Answer: Its ratio is 4.26.

Question: With “diLR10^R3K: dimer of monomer LR10^R3K, Ac-LCKLLRRLCR-NH2 (SEQ ID NO 30) (also: dimer of two monomers linked by interchain disulfide bonds)” as the compound, how does the “intracellular delivery ability for CsA” value [3] read?
Answer: The value was “best intracellular delivery ability for CsA”.
